From ChEMBL document CHEMBL1122030, “2-Arylpyrazolo[4,3-c]quinolin-3-ones: novel agonist, partial agonist, and antagonist of benzodiazepines” (J Med Chem, 1982)
Where “and” joins values, the source holds several entries; their conditions need not be identical. Equal values may be shown once.

What was measured:
Rattus norvegicus [1] = species: Rattus norvegicus; assay: Antianxiety effect was assessed by the cook-davidson behavior test; type: functional
Rattus norvegicus [2] = assay: (§1) Effect on anti-convulsive 5.4 mg/kg Diazepam peroral dose in rats given 24 mg/kg iv metrazol, number of rats protected (of 6); type: functional
[3] = target: GABA-A receptor; anion channel; assay: In vitro inhibition of binding to GABA-A central benzodiazepine-receptor of rat brain
Rattus norvegicus [4] = assay: Antianxiety effect was assessed by the cook-davidson behavior test at 10 mg/kg of compound administered perorally.; type: functional; settings: route oral
Rattus norvegicus [5] = assay: Antianxiety effect in cook-davidson behavior test at 1 mg/kg of compound administered perorally in rats expressed as mean percent change; type: functional; settings: route oral
Rattus norvegicus [6] = assay: Antianxiety effect was assessed by the cook-davidson behavior test at 1 mg/kg of compound administered perorally.; type: functional; settings: route oral
Rattus norvegicus [7] = assay: Antianxiety effect was assessed by the cook-davidson behavior test at 3 mg/kg of compound administered perorally.; type: functional; settings: route oral
Rattus norvegicus [8] = assay: Anticonvulsant efficacy when administered perorally was determined in rat metrazole anticonvulsant test; Calculated from responses at 1,3 and 10 mg/kg doses; type: functional; settings: route oral
Rattus norvegicus [9] = assay: Antianxiety effect in cook-davidson behavior test at 10 mg/kg of compound administered perorally in rats expressed as mean percent change; type: functional; settings: route oral
Rattus norvegicus [10] = assay: Antianxiety effect in cook-davidson behavior test at 3 mg/kg of compound administered perorally in rats expressed as mean percent change; type: functional; settings: route oral
Rattus norvegicus [11] = assay: as §1; type: functional; remark: listed apart in the source
[12] = target: T1, GABA-A receptor; anion channel (Rattus norvegicus) (UniProt O09028+P15431+P18506+P18508+P19969+P20236+P23574+P23576+P28471+P28473+P30191+P62813+P63079+P63138+Q91ZM7+Q9ES14)
Description: (§2) In vivo inhibition of binding to GABA-A central benzodiazepine-receptor after po administration in rats

Rattus norvegicus [13] = assay: as §1; type: functional; remark: listed apart in the source
Rattus norvegicus [14] = assay: as §1; type: functional; remark: listed apart in the source
[15] = target: T1, GABA-A receptor; anion channel (Rattus norvegicus); remark: listed apart in the source
Description: In vivo inhibition of binding to GABA-A central benzodiazepine-receptor after ip administration in rats

Rattus norvegicus [16] = assay: Anticonvulsant efficacy when administered perorally was determined in rat metrazole anticonvulsant test; type: functional; settings: po
Rattus norvegicus [17] = assay: Antianxiety effect in cook-davidson behavior test at 30 mg/kg of compound administered perorally in rats expressed as mean percent change; type: functional; settings: route oral
[18] = target: T1, GABA-A receptor; anion channel (Rattus norvegicus); remark: listed apart in the source
Description: as §2

Rattus norvegicus [19] = assay: Antianxiety effect was assessed by the cook-davidson behavior test at 30 mg/kg of compound administered perorally.; type: functional; settings: route oral

SMILES	FR10 control (Rattus norvegicus [1])	No. of animals protected (Rattus norvegicus [2])	IC50 [3]	FR10 treated (Rattus norvegicus [4])	VI30 (Rattus norvegicus [5])	FR10 treated (Rattus norvegicus [6])	FR10 treated (Rattus norvegicus [7])	ED50 (Rattus norvegicus [8])	VI30 (Rattus norvegicus [9])	VI30 (Rattus norvegicus [10])	No. of animals protected (Rattus norvegicus [11])	ID50 [12]	No. of animals protected (Rattus norvegicus [13])	No. of animals protected (Rattus norvegicus [14])	ID50 [15]	ED50 (Rattus norvegicus [16])	VI30 (Rattus norvegicus [17])	ID50 [18]	FR10 treated (Rattus norvegicus [19])
COc1ccc(-n2nc3c4ccccc4[nH]cc-3c2=O)cc1	61 and 65 and 50	4	100 pM	100	6.5%	98	124	2.81 mg/kg	5.7%	7.8%	–	–	–	–	–	–	–	–	–
O=C1C2C=Nc3ccccc3C2=NN1c1ccccc1 (stereo not given) [CGS-8216]	–	5	400 pM	–	0.1%	87	–	–	–	–	0	7.06 mg/kg	1	0	–	–	–	–	–
O=C1C2C=Nc3ccccc3C2=NN1c1ccc(Cl)cc1 (stereo not given) [CGS-9896]	67 and 112 and 81 and 73	–	600 pM	230	0.1%	217	234	–	18.2%	10.2%	–	–	–	–	3.3 mg/kg	0.9 mg/kg	7.5%	–	–
CN1C(=O)CN=C(c2ccccc2)c2cc(Cl)ccc21 [DIAZEPAM]	82 and 85 and 63 and 76	–	–	206	5.9%	97	131	–	3.6%	6.1%	–	–	–	–	–	4 mg/kg	-23.8%	5 mg/kg	240
